Source: US10385024B2, “Compounds and methods for inhibiting NHE-mediated antiport in the treatment of disorders associated with fluid retention or salt overload and gastrointestinal tract disorders” (Ardelyx, Inc., priority 2012, dated 2019)

Experiments:
human NHE-3 = target: T1, human NHE-3 (Homo sapiens, UniProt P48764); experiment: Cell-based assay of NHE-3 activity (human NHE3 inhibition assay); conditions: OK cells with human NHE-3 gene, BCECF pH dye, 0-30 μM test compound; for IC50: read-out: Human NHE3 pIC50 (converted)
T1 construct: expressed in transfected cells; host or cells: Opossum kidney (OK) cells (ATCC), transfected by electroporation
T1 sequence (P48764 26-834): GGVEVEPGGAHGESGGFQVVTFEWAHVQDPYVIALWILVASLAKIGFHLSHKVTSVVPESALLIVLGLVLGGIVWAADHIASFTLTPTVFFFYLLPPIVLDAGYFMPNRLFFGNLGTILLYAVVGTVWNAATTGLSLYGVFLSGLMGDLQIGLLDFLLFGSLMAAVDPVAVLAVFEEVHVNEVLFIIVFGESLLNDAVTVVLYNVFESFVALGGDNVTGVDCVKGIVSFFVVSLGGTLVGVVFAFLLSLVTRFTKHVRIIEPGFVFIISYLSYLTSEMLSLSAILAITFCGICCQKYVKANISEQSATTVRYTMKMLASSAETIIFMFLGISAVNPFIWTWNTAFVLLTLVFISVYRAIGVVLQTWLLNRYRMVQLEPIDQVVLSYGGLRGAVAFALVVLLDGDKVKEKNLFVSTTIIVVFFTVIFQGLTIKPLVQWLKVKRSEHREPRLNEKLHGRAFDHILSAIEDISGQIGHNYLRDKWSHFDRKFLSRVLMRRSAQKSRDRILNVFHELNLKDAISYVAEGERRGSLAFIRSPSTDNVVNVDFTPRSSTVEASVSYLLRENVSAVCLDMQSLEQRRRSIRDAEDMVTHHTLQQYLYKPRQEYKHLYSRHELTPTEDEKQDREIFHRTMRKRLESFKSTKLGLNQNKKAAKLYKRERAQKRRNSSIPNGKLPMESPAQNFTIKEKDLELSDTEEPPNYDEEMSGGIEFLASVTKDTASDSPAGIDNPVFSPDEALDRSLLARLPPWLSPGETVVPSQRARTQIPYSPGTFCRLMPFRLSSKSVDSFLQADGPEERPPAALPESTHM
Summary of the method: (§1)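 Opossum kidney cells electroporated with rat or human NHE-3, loaded with 5 μM BCECF-AM in NH4Cl-HEPES pH 7.4 for 30 min at RT, then acidified 10 min in Na+-free choline HEPES. Na+-dependent pH recovery rates from BCECF fluorescence, averaged over ≥2 replicates, gave pIC50.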

[1] = Pharmacokinetic evaluation in bile; assay type: in vivo, Sprague-Dawley rats; conditions: bile duct cannulated rats, oral gavage, nominal dose 30 mg/kg, bile collected over 24 h, mean of n=3
Method: Bile duct cannulated (BDC) Sprague-Dawley rats were dosed with test compounds by oral gavage and a single aliquot of bile was collected via cannula over the 24 h following dosing. Bile samples were treated with acetonitrile and precipitated proteins were removed by centrifugation. Some compounds required liquid-liquid extraction using MTBE. After centrifugation, samples were diluted as appropriate in mobile phase and analyzed by LC-MS/MS. The concentrations of compounds in bile were determined by interpolation from a standard calibration curve prepared in rat bile from untreated BDC rats. Accurate recovery of quality control samples was confirmed to accept each analytical run. Concentration in bile is reported in nM and represents the mean result from n=3 rats.

Rat NHE-3 = target: T2, Rat NHE-3 (Rattus norvegicus, UniProt P26433); experiment: Cell-based assay of NHE-3 activity (rat NHE-3 prompt inhibition); conditions: OK cells with rat NHE-3 gene, compound present during pH recovery; for IC50: read-out: Rat NHE3 pIC50 (prompt) (converted)
T2 construct: expressed in transfected cells; host or cells: Opossum kidney (OK) cells (ATCC), transfected by electroporation
Summary of the method: as §1

T2 sequence (P26433 29-831): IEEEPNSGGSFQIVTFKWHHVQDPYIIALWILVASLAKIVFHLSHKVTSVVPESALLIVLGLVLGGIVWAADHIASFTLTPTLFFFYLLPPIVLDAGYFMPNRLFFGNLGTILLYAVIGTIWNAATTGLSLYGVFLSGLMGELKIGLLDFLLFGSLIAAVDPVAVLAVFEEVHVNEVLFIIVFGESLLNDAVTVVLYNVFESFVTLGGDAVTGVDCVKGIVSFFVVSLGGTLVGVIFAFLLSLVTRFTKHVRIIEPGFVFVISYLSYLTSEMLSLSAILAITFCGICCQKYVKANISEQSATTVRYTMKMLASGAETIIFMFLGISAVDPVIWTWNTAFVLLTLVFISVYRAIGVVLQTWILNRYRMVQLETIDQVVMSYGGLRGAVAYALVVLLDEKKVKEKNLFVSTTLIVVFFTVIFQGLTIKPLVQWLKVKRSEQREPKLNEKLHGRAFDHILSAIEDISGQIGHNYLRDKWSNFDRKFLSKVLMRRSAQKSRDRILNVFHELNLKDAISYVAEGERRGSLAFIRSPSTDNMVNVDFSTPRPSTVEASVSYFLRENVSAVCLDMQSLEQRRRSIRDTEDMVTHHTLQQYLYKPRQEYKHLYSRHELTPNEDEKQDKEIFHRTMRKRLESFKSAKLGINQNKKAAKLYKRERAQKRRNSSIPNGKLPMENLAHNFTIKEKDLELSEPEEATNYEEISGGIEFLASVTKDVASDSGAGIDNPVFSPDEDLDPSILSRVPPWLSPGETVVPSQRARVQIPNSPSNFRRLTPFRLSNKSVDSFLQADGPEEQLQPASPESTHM

SMILES | IC50 (human NHE-3) [µM] | Concentration in Bile [1] [nM] | IC50 (Rat NHE-3) [µM] | Human NHE3 pIC50 (human NHE-3) | Rat NHE3 pIC50 (prompt) (Rat NHE-3)
CN1Cc2c(Cl)cc(Cl)cc2[C@H](c2cccc(S(=O)(=O)NCCOCCOCCNC(=O)CCC(CCC(=O)NCCOCCOCCNS(=O)(=O)c3cccc([C@@H]4CN(C)Cc5c(Cl)cc(Cl)cc54)c3)(CCC(=O)NCCOCCOCCNS(=O)(=O)c3cccc([C@@H]4CN(C)Cc5c(Cl)cc(Cl)cc54)c3)NC(=O)NCCS(=O)(=O)O)c2)C1 [Example 3] | < 0.1 | 10 | < 0.1 | – | –
CN1Cc2c(Cl)cc(Cl)cc2[C@H](c2cccc(S(=O)(=O)NCCOCCOCCNC(=O)CCC(CCC(=O)NCCOCCOCCNS(=O)(=O)c3cccc([C@@H]4CN(C)Cc5c(Cl)cc(Cl)cc54)c3)(CCC(=O)NCCOCCOCCNS(=O)(=O)c3cccc([C@@H]4CN(C)Cc5c(Cl)cc(Cl)cc54)c3)NC(=O)COCC(=O)O)c2)C1 [Example 6, 1-(3-((S)-6,8-dichloro-2-methyl-1,2,3,4-tetrahydroisoquinolin-4-yl)phenylsulfonamido)-13,13-bis(3-(2-(2-(2-(3-((S)-6,8-dichloro-2-methyl-1,2,3,4-tetrahydroisoquinolin-4-yl)phenylsulfonamido)ethoxy)ethoxy)ethylamino)-3-oxopropyl)-10,15-dioxo-3,6,17-trioxa-9,14-diazanonadecan-19-oic Acid] | < 0.1 | 21 | < 0.1 | – | –
CN1Cc2c(Cl)cc(Cl)cc2[C@H](c2cccc(S(=O)(=O)NCCOCCOCCNC(=O)CCC(CCC(=O)NCCOCCOCCNS(=O)(=O)c3cccc([C@@H]4CN(C)Cc5c(Cl)cc(Cl)cc54)c3)(CCC(=O)NCCOCCOCCNS(=O)(=O)c3cccc([C@@H]4CN(C)Cc5c(Cl)cc(Cl)cc54)c3)NC(=O)NC(CO)(CO)CO)c2)C1 [Example 11, N^1,N^7-bis(2-(2-(2-(3-((S)-6,8-dichloro-2-methyl-1,2,3,4-tetrahydroisoquinolin-4-yl)phenylsulfonamido)ethoxy)ethoxy)ethyl)-4-(3-(2-(2-(2-(3-((S)-6,8-dichloro-2-methyl-1,2,3,4-tetrahydroisoquinolin-4-yl)phenylsulfonamido)ethoxy)ethoxy)ethylamino)-3-oxopropyl)-4-(3-(1,3-dihydroxy-2-(hydroxymethyl)propan-2-yl)ureido)heptanediamide] | 0.1 to 10 | – | > 10 | – | –
CN(C)CC(=O)NC(CCC(=O)NCCOCCOCCNS(=O)(=O)c1cccc([C@@H]2CN(C)Cc3c(Cl)cc(Cl)cc32)c1)(CCC(=O)NCCOCCOCCNS(=O)(=O)c1cccc([C@@H]2CN(C)Cc3c(Cl)cc(Cl)cc32)c1)CCC(=O)NCCOCCOCCNS(=O)(=O)c1cccc([C@@H]2CN(C)Cc3c(Cl)cc(Cl)cc32)c1 [Example 14, N1,N7-bis(2-(2-(2-(3-((S)-6,8-dichloro-2-methyl-1,2,3,4-tetrahydroisoquinolin-4-yl)phenylsulfonamido)ethoxy)ethoxy)ethyl)-4-(3-(2-(2-(2-(3-((S)-6,8-dichloro-2-methyl-1,2,3,4-tetrahydroisoquinolin-4-yl)phenylsulfonamido)ethoxy)ethoxy)ethylamino)-3-oxopropyl)-4-(2-(dimethylamino)acetamido)heptanediamide] | < 0.1 | 28 | < 0.1 | – | –
CN1Cc2c(Cl)cc(Cl)cc2[C@H](c2cccc(S(=O)(=O)NCCOCCOCCNC(=O)CCC(CCC(=O)NCCOCCOCCNS(=O)(=O)c3cccc([C@@H]4CN(C)Cc5c(Cl)cc(Cl)cc54)c3)(CCC(=O)NCCOCCOCCNS(=O)(=O)c3cccc([C@@H]4CN(C)Cc5c(Cl)cc(Cl)cc54)c3)NC(=O)NCCN3CCOCC3)c2)C1 [Example 17, N^1,N^7-bis(2-(2-(2-(3-((S)-6,8-dichloro-2-methyl-1,2,3,4-tetrahydroisoquinolin-4-yl)phenylsulfonamido)ethoxy)ethoxy)ethyl)-4-(3-(2-(2-(2-(3-((S)-6,8-dichloro-2-methyl-1,2,3,4-tetrahydroisoquinolin-4-yl)phenylsulfonamido)ethoxy)ethoxy)ethylamino)-3-oxopropyl)-4-(3-(2-morpholinoethyl)ureido)heptanediamide] | < 0.1 | – | < 0.1 | – | –
CN1Cc2c(Cl)cc(Cl)cc2[C@H](c2cccc(S(=O)(=O)NCCOCCOCCNC(=O)CCC(CCC(=O)NCCOCCOCCNS(=O)(=O)c3cccc([C@@H]4CN(C)Cc5c(Cl)cc(Cl)cc54)c3)(CCC(=O)NCCOCCOCCNS(=O)(=O)c3cccc([C@@H]4CN(C)Cc5c(Cl)cc(Cl)cc54)c3)NC(=O)CCCC(=O)O)c2)C1 [Example 36] | – | 17 | – | C (C NHE3 pIC50 > 7) | C (C NHE3 pIC50 > 7)
CN1Cc2c(Cl)cc(Cl)cc2[C@H](c2cccc(S(=O)(=O)NCCOCCOCCNC(=O)CCC(CCC(=O)NCCOCCOCCNS(=O)(=O)c3cccc([C@@H]4CN(C)Cc5c(Cl)cc(Cl)cc54)c3)(CCC(=O)NCCOCCOCCNS(=O)(=O)c3cccc([C@@H]4CN(C)Cc5c(Cl)cc(Cl)cc54)c3)NC(=O)CCC(=O)O)c2)C1 [Example 40] | – | 23 | – | C (C NHE3 pIC50 > 7) | C (C NHE3 pIC50 > 7)
CN1Cc2c(Cl)cc(Cl)cc2[C@H](c2cccc(S(=O)(=O)NCCOCCOCCNC(=O)NCCCN(CCCNC(=O)NCCOCCOCCNS(=O)(=O)c3cccc([C@@H]4CN(C)Cc5c(Cl)cc(Cl)cc54)c3)CCCNC(=O)NCCOCCOCCNS(=O)(=O)c3cccc([C@@H]4CN(C)Cc5c(Cl)cc(Cl)cc54)c3)c2)C1 [Example 43, (S)—N,N′-(15-(1-(3-((S)-6,8-dichloro-2-methyl-1,2,3,4-tetrahydroisoquinolin-4-yl)phenylsulfonamido)-10-oxo-3,6-dioxa-9,11-diazatetradecan-14-yl)-10,20-dioxo-3,6,24,27-tetraoxa-9,11,15,19,21-pentaazanonacosane-1,29-diyl)bis(3-((S)-6,8-dichloro-2-methyl-1,2,3,4-tetrahydroisoquinolin-4-yl)benzenesulfonamide)] | < 0.1 | 6 | 0.1 to 10 | – | –
CN1Cc2c(Cl)cc(Cl)cc2[C@H](c2cccc(S(=O)(=O)NCCOCCOCCN(C)C(=O)NCCCN(CCCNC(=O)N(C)CCOCCOCCNS(=O)(=O)c3cccc([C@@H]4CN(C)Cc5c(Cl)cc(Cl)cc54)c3)CCCNC(=O)N(C)CCOCCOCCNS(=O)(=O)c3cccc([C@@H]4CN(C)Cc5c(Cl)cc(Cl)cc54)c3)c2)C1 [Example 55] | – | – | – | C (C NHE3 pIC50 > 7) | B (B NHE3 pIC50 5-7)
CN1Cc2c(Cl)cc(Cl)cc2[C@H](c2cccc(S(=O)(=O)NCCOCCOCCNC(=O)NCCCC(N)(CCCNC(=O)NCCOCCOCCNS(=O)(=O)c3cccc([C@@H]4CN(C)Cc5c(Cl)cc(Cl)cc54)c3)CCCNC(=O)NCCOCCOCCNS(=O)(=O)c3cccc([C@@H]4CN(C)Cc5c(Cl)cc(Cl)cc54)c3)c2)C1 [Example 62] | – | 7 | – | C (C NHE3 pIC50 > 7) | B (B NHE3 pIC50 5-7)
CN1Cc2c(Cl)cc(Cl)cc2[C@H](c2cccc(S(=O)(=O)NCCOCCOCCNC(=O)NCCCC(CCCNC(=O)NCCOCCOCCNS(=O)(=O)c3cccc([C@@H]4CN(C)Cc5c(Cl)cc(Cl)cc54)c3)(CCCNC(=O)NCCOCCOCCNS(=O)(=O)c3cccc([C@@H]4CN(C)Cc5c(Cl)cc(Cl)cc54)c3)NC(=O)NC[C@H](O)[C@@H](O)[C@H](O)[C@H](O)CO)c2)C1 [Example 65] | – | – | – | C (C NHE3 pIC50 > 7) | B (B NHE3 pIC50 5-7)
